Assay results: patent US10712349B2, “Circulating KIM-1 levels for detection of pathologies associated with injury to, or cancer of, the kidney” (THE BRIGHAM AND WOMEN'S HOSPITAL, INC., priority 2014, dated 2020)
Entries after “also recorded” stand apart in the source; their conditions may differ.

Experiments:
male BALB/c mice = test: Liver injury in mice (CCl4), specificity of plasma KIM-1 to renal injury; assay type: in vivo, mouse; conditions: 48 hours
Method: As controls, male BALB/c mice were injected intraperitoneally once with 0.5 ml/kg of 10% CC14 in vegetable oil (n=5) or vegetable oil alone (vehicle, n=5), as previously de-scribed.^21 Forty-eight hours after CCl4 administration, mice were euthanized and urine, plasma, and tissue samples were collected and analyzed.
(§1) Microbead-based assays for rodent and human plasma and serum KIM-1 were developed, and extensive validation of the assays were performed using previously described approaches.^24 Urinary KIM-1 in rodents and humans was measured using microbead based assays as described previously.5,7,25,26 Capture antibodies (MAB 1817 for mouse, AF1750 for human [R&D Systems]), MARKE^25 antibody for rat (developed at Brigham and Women's Hospital) were conjugated with COOH polystyrene beads (Bio-Rad) with an amine coupling kit (Bio-Rad) using N-hydroxysuccinamide-1-ethyl-3-(3-dimethylaminopropyl) carbodiimide chemistry according to the manufacturer's protocol. Approximately 6000 beads in […] of sample diluent buffer (0.1M HEPES, 0.1M NaCl, 0.1% Tween-20, and 1% BSA; pH, 7.4; filter sterilized) were incubated with […] of sample or recombinant KIM-1 protein (1817-TM-050-CF for mice, 1750-TM for humans [R&D systems]), and KIM-FC for rats [developed at Brigham and Women's Hospital]) for 45 minutes. After incubation, beads were washed three times with PBS with Tween and incubated with biotinylated anti-KIM-1 detection antibody (BAF 1817 for mice, BAF 1750 for humans [R&D Systems]) and MARKE-2 for rats [developed at Brigham and Women's Hospital]) for 30 minutes. Beads were washed again with PBS with Tween and incubated for 15 minutes with the streptavidin-phycoerythrin solution (Invitrogen). The signal from the fluorochrome, which is directly proportional to the amount of antigen bound at the microbead surface, is captured using the Bio-Plex system (Bio-Rad). Data were interpreted using a five parametric logistic regression analysis.
To evaluate the specificity of plasma KIM-1 to renal injury, mice were treated with carbon tetrachloride (CCl4), a known hepatotoxicant. […] Thus, plasma KIM-1 was not affected by liver injury.

Male Sprague-Dawley rats = test: Gentamicin-induced nephrotoxicity in rats; assay type: in vivo, rat; conditions: for kidney histopathologic analysis: kidney tissue collected day 11
Method: Rats were provided with free access to food and water and subjected to a 12-hour light and dark cycle. Rats were euthanized on day 11, and urine, plasma, and tissue samples were collected and analyzed. Tissue samples were fixed in 10% neutral buffered formalin or snap frozen. For histologic assessment, […] paraffin sections were prepared and stained with hematoxylin and eosin. The rat studies were undertaken in accordance with criteria outlined in a license granted under the Animals (Scientific Procedures) Act 1986 and approved by the University of Liverpool Animal Ethics Committee.
as §1
The inventors also investigated whether plasma KIM-1 levels can serve as a biomarker in gentamicin-induced kidney injury in a different rodent species, rats. […] Plasma, urine, and kidney tissue were collected on day 11. The extent of kidney damage was assessed by histo-pathologic analysis and changes in plasma creatinine. […] The lumens of the tubules were filled with casts and dead cells. […] Thus, plasma KIM-1 is a sensitive marker of ischemia and toxin-induced injury to the proximal tubule in mice and rats.

[1] = single dose of 10% CCl4, 0.5 ml/kg

Row | Compound | liver histopathology (male BALB/c mice; single dose of 10% CCl4, 0.5 ml/kg intraperitoneally) | kidney morphology (histopathology) (male BALB/c mice; [1]) | plasma KIM-1 (male BALB/c mice; [1]) | plasma creatinine (male BALB/c mice; [1]) | urinary KIM-1 (male BALB/c mice; [1]) | kidney histopathologic analysis (Male Sprague-Dawley rats; 50 mg/kg gentamicin per day intraperitoneally for 10 days) | urinary KIM-1 levels (normalized to urine creatinine) (Male Sprague-Dawley rats; 10 daily doses of 50 or 200 mg/kg, day 11) | kidney sections, hematoxylin and eosin staining (Male Sprague-Dawley rats; 50 or 200 mg/kg daily for 10 days, euthanized day 11 (FIG. 1H)) | kidney histopathologic analysis (Male Sprague-Dawley rats; daily doses of 200 mg/kg gentamicin for 10 days)
1 | ClC(Cl)(Cl)Cl [CCl4, carbon tetrachloride] | liver necrosis | No histopathologic changes | no significant alterations; also recorded: not changed | no significant alterations | no significant alterations |  |  |  | 
2 | gentamicin |  |  |  |  |  | brush border loss, focal tubular necrosis, and interstitial inflammation | significantly increased | loss of brush border, necrosis, and sloughing of cells into the tubular lumen | extensive diffuse cell necrosis
